Results published in patent US9656951B2, “Polymorphs of CDDO ethyl ester and uses thereof” (Applied Pharmaceutical Science, Inc., priority 2012, dated 2017).

Columns and labels:
in vivo = assay: in vivo; design: species or system mice; conditions: mouse, ip, 10 mg/kg
Experimental: Female CD-I mice were injected ip with 10 mg/kg of the three polymorphs of the compound of Formula I (CDDO ethyl) and methyl 2-cyano-3,12-dioxoIeana-1,9(11)-dien-28-oate (CDDO methyl) in DMSO-cremphor-PBS (1:1:8 weight by weight or volum by volum). Blood samples were collected at 0.083, 0.25, 0.5, 1, 2, 4, 8, and 24 hr post-dose. The levels were quantified by HPLC/MS using compound add to control blood for standard. PK results are shown at Table 3. The systemic exposure of the three polymorphs of the compound of Formula I of CDDO ethyl is higher than that of CDD) methyl. Following is the order: The glassy solid form of CDDO ethyl>Crystalline Form II of CDDO ethyl>Crystalline Form I of CDDO ethyl>CDDO Methyl

[1] = tested on: NO production induced by IFN-g in mouse macrophages (RAW 264.7 cells); assay: Measurement of NO in RAW 264.7 cells induced by IFN-γ; type: cell-based; conditions: RAW264.7 cells, 10 ng/ml IFN-γ, 48 hours
Experimental: Assay Protocol Procedures
1 Maintained RAW264.7 cells in DMEM with 10% FBS at 37° C., 5% CO2.
Induction of NO in RAW264.7 Cells
1. The cells were seeded at 1×10^5/well onto 96-well cell culture plate.
2. After incubation for 2 hours at 37° C. under 5% CO2, the nonadherent cells were removed by aspiration and freshly prepared complete medium with 10 ng/ml IFN-γ and dilluted compounds was added.
3. Incubated the cells at 37° C. under 5% CO2 for another 48 hours.
Measurement of NO in RAW Cells
1. Centrifuged at 1000 rpm for 5 minutes to collect supernatant medium.
2. Prepared 1 ml of a 100 μM nitrite solution by diluting the provided 0.1 M Nitrite Standard 1:1,000 in the matrix or buffer used for the experimental samples.
4. Allowed the Sulfanilamide Solution and NED Solution to equilibrate to room temperature (15-30 minutes).
5. Added 50 μl of each experimental sample to wells in duplicate.
6. Used a multichannel pipettor to dispense 50 μl of the Sulfanilamide Solution to all experimental samples and wells containing the dilution series for the Nitrite Standard.
7. […]
10. Measured absorbance within 30 minutes in a plate reader with a filter between 520 nm and 550 nm.
The inhibitory activities [as measured by the IC50 (nM) value] of Crystalline Form II of the compound of Formula I (CDDO ethyl ester) on NO production induced by IFN-g in mouse macrophages 17 are shown in FIG. 5.

[2] = Stability determination of polymorphs (XRD) at 25° C./60% R.H. and 40° C./75% R.H.; type: physicochemical
Experimental: Other polymorphs of this invention were used similar in the study.
The glassy solid Form of the compound of Formula I, prepared as described in Example 4, was test at 25° C./60% R.H. and 40° C./75% R.H for one week.

[3] = 25° C./60% R.H. and 40° C./75% R.H.

AUC(0-inf) (in vivo; female, CD-I) [ng·h/mL] | AUC(0-t) (in vivo; female, CD-I) [ng·h/mL] | Cmax (in vivo; female, CD-I) [ng/mL] | half-life (in vivo; female, CD-I) [min] | tmax (in vivo; female, CD-I) [min] | AUCInf (in vivo) [ng·h/mL] | AUClast (in vivo) [ng·h/mL] | Cmax (in vivo) [ng/mL] | t1/2 (in vivo) [h] | tmax (in vivo) [min] | IC50 ([1]; listed as Crystalline Form II of the compound of Formula I (CDDO ethyl ester)) [nM] | change of XRD on storage [2, 3] | IC50 ([1]; listed as glassy solid form of the compound of Formula I (CDDO ethyl ester)) [nM] | change of XRD on storage ([2]; 25° C./60% R.H. and 40° C./75% R.H for one week) | Molecule | thermodynamic stability compared to other polymorphs [2, 3]
1970 | 1800 | 363 | 396 | 48 | – | – | – | – | – | – | – | – | – | COC(=O)[C@]12CCC(C)(C)C[C@H]1[C@H]1C(=O)C=C3[C@@]4(C)C=C(C#N)C(=O)C(C)(C)[C@@H]4CC[C@@]3(C)[C@]1(C)CC2 [CDDO Methyl Ester, methyl 2-cyano-3,12-dioxoIeana-1,9(11)-dien-28-oate, reference compound] | –
– | – | – | – | – | 3456 | 3221 | 466 | 8.3 | 48 | – | – | – | – | ethyl 2-cyano-3,12-dioxoIeana-1,9(11)-dien-28-oate [Crystalline Form I of CDDO ethyl] | –
– | – | – | – | – | 3840 | 3443 | 482 | 7.3 | 48 | 34 | no significant change of XRD | – | – | ethyl 2-cyano-3,12-dioxoIeana-1,9(11)-dien-28-oate [Crystalline Form II of CDDO ethyl] | most thermodynamically stable crystal form
– | – | – | – | – | 7526 | 4721 | 513 | 16.1 | 48 | – | – | 32 | no significant change of XRD | ethyl 2-cyano-3,12-dioxoIeana-1,9(11)-dien-28-oate [The glassy solid form of CDDO ethyl] | –
